Experimental data taken from patent US11796610B2, “Compositions as molecular tags for hyperpolarization NMR and magnetic resonance and methods of making and using same” (Duke University, priority 2018, dated 2023).

How the values were obtained:
Assay type in all cases: physicochemical
[1] = Hyperpolarization then cycloaddition with cyclooctyne 2: enhancement and lifetime of products; conditions: methanol-d4; for signal enhancement over thermal spectra, product anti-phase (singlet) signal: tetrazine scalar order hyperpolarized at 0.3 mT, then 2 injected
Excerpt: For the hyperpolarization of the cycloaddition products 3a and 3b, a solution of tetrazine (1a or 1b, respectively), pyridine, and Ir catalyst in methanol-d4 was first hyperpolarized at 0.4 μT or 0.3 mT, depending on which spin order was studied (solution preparation and hyperpolarization procedure described above in Example 4). After hyperpolarization, the para-H2 gas flow was stopped and the pressure was released through the exhaust outlet, after which the injection valve (shown in FIG. 5) was quickly opened to inject a solution of cyclooctyne 2 (4.5 mM) in methanol-d4 (200 μL) (equiv of tetrazine:2=1.0:1.5). Injection was completed in less than 1 second, and the sample was shaken for 3 seconds to reach complete reaction, visually evidenced by the color change from pink (i.e., the color of the tetrazine) to transparent. The sample was then manually transferred to an 8.5 T spectrometer for product signal read out.
Upon the cycloaddition reaction, a noticeable difference in chemical shift is observed on both nitrogen atoms (i.e., N1 and N2 in 1a vs. N1′ and N2′ in 3a). […] Hyperpolarized 3a and ^15N2 are observed. FIG. 3, panels c, e, and g show representative T1 or Ts decay measurements for product 3a magnetization, 3a singlet order, and 3b singlet order, respectively. […] FIG. 3, panels d, f, and h show lifetime measurement data, exponential fit of the data, and calculated T1 or Ts values for product 3a magnetization, 3a singlet order, and 3b singlet order, respectively. In the hyperpolarization-cycloaddition experiments, para-hydrogen was bubbled into a solution of ^15N4-1,2,4,5-tetrazine 1a or 1b (1.5 mM), pyridine (1.0 mM), and Ir(COD)(IMes)Cl (0.15 mM) in methanol-d4 (400 uL), then a solution of 2 (1.5 equivalents) in methanol-d4 (200 μL) was added. The sample was held at 0.3 mT for a variable amount of time before transport to the magnet for detection.

[2] = Injection and detection with small tip angle (product relaxation lifetime); conditions: 15° tip angle, 6 consecutive spectra in the magnet, 1.6 s delay
Experimental: In addition to using a 90° pulse-acquire sequence for detection after injection, experiments using small tip angles (15° or 11.25°) were conducted to acquire a series of detection within a short time window (˜10 s), and to use that information to determine the relaxation lifetime of different spin orders of the hyperpolarized product.
FIG. 9, panel a: magnetization of ^15N-enriched tetrazine 1a is first hyperpolarized at 0.4 μT, then a solution of 2 in methanol-d4 is injected (as described in Example 4). Then, the sample is manually transferred as quickly as possible into the magnet, using 15° tip angle to acquire 6 spectra consecutively, with a 1.6 s delay between each acquisition. […] Panel b: singlet spin order of ^15N-enriched tetrazine 1a is first hyperpolarized at 0.3 mT, then a solution of 2 in methanol-d4 is injected (as described in Example 4). Then, the sample is manually transferred as quickly as possible into the magnet, using 11.25° tip angle to acquire 6 spectra consecutively, with a 1.6 s delay between each acquisition. […] Panels c-e: relaxation constant measurements of the hyperpolarized product magnetization, hyperpolarized ^15N2 gas, and hyperpolarized product singlet. The product magnetization has T1 lifetime of ˜6.9 s.

[3] = Hyperpolarization in aqueous media (3:1 methanol-d4:D2O, about 50° C.)
Experimental: One important aspect of our bioorthogonal reaction-promoted hyperpolarization approach is the ability to exploit this scheme using an aqueous solvent, which is critical for many biological reactions and would widely broaden the applicability of this strategy. […] The best results were achieved using a 3:1 methanol-d4:D2O mixture and by elevating the temperature to about 50° C. using a water bath while bubbling para-H2 through the solution.
A solution of 2 was prepared in the same 3:1 methanol-d4:D2O mixed solvent and was injected after the hyperpolarization was established for the precursor tetrazine.

[4] = SABRE-SHEATH hyperpolarization of 15N4-1,2,4,5-tetrazines in methanol-d4
Experimental: Unless otherwise described, a solution of ^15N-enriched tetrazine (1a or 1b, 1.5 mM), pyridine (1.0 mM), and Ir(IMes)(COD) Cl (0.15 mM) in methanol-d4 (400 μL) was prepared. Note: IMes=1,3-bis(2,4,6-trimethylphenyl) imidazol-2-ylidene; COD=1,5-cyclooctadiene.
The Ir catalyst was pre-activated by bubbling para-H2 through a solution of tetrazine, pyridine, and Ir catalyst (sample preparation described above) for 30 minutes. Following pre-activation, the tetrazine was hyperpolarized, either magnetization or singlet order.
To hyperpolarize magnetization, the solution was placed inside the magnetic shield, with the magnetic field adjusted to 0.4 μT (using a solenoid of 430 mm with 205 turns and a voltage of 7.5 V across 11.4 kOhms). After 3 minutes' bubbling of para-H2, the gas flow was stopped and the sample was manually transferred from the low field to an 8.5 T spectrometer for signal read out as quickly as possible. This manual transfer takes ˜8 seconds, and a 90° pulse-acquire sequence was used for read out.
To hyperpolarize singlet, the sample was placed at a magnetic field of 0.3 mT and para-H2 was bubbled through the solution for 3 minutes. As described in the above procedure, the sample was then manually transferred to an 8.5 T spectrometer as quickly as possible and detected using a 90° pulse-acquire sequence.
Depending on the magnetic field at which hyperpolarization was induced, in-phase signal (magnetization) or anti-phase signal (singlet) was observed. Enhancement values (ε) and polarization levels (p) were obtained by comparison of the hyperpolarized spectrum to a thermal reference spectrum of the respective ^15N4-1,2,4,5-tetrazine. […] Measurement at 0.3 mT. Sample as a solution of ^15N4-1,2,4,5-tetrazine (1.5 mM), pyridine (1.0 mM), and Ir(COD)(IMes)Cl (0.15 mM) in methanol-d4 (400 uL).
Hyperpolarization of 1a and 1b was examined by standard SABRE-SHEATH procedure, as reported by Theis et al. (“Direct and cost-efficient hyperpolarization of long-lived nuclear spin states on universal ^15N2-diazirine molecular tags,” Sci. Adv. 2, e1501438 (2016)). Two different hyperpolarized states for ^15N4-1,2,4,5-tetrazine 1a were observed, depending upon the chosen magnetic field at which the para-hydrogen gas is applied to the sample (FIG. 2b). At very low magnetic fields (˜0.4 μT), the ^15N spin pairs of the tetrazine are hyperpolarized in the triplet states and display in-phase signal upon detection at 8.45 T (i.e., magnetization is hyperpolarized). Conversely, at a relatively broad range of slightly elevated magnetic fields (˜0.2 mT<B<˜50 mT), anti-phase signals are observed after a 90° pulse. In this case, scalar order is hyperpolarized in the tetrazine spin pairs, associated with singlet states on ^15N-spin pairs; upon transfer to high magnetic field for detection, this scalar order is transformed into anti-aligned magnetization (I⋅S is adiabatically converted to Iz-Sz).

[5] = Concentration dependence of tetrazine hyperpolarization (enhancement and lifetime); conditions: for T1 / Ts: decay at 0.3 mT
Experimental: Using serial dilution, solutions of tetrazine 1a, pyridine, and Ir catalyst in methanol-d4 (400 μL) were prepared at different concentrations, but in the same ratio of each component: • (i) 1a (7.5 mM), pyridine (5.0 mM), and Ir(IMES)(COD)Cl (0.75 mM) • (ii) 1a (3.8 mM), pyridine (2.5 mM), and Ir(IMES)(COD)Cl (0.38 mM) • (iii) 1a (1.5 mM), pyridine (1.0 mM), and Ir(IMES)(COD)Cl (0.15 mM) (i.e., default concentrations of solution used in all other experiments) • (iv) 1a (0.60 mM), pyridine (0.40 mM), and Ir(IMES)(COD)Cl (0.060 mM)
For the rest of this section, samples are referred to by the concentration of tetrazine 1a comprising the solution. As described above, either magnetization or singlet tetrazine hyperpolarization was developed following pre-activation of the catalyst. After bubbling para-H^2 through the sample, the sample was transferred to 0.3 mT for a variable period of time. Following this delay, the sample was transported to the magnet and the spectrum was immediately recorded with a 90° pulse-acquire sequence. Triplet magnetization signal was deconvoluted from singlet signal, and fitted to a single exponential decay. Results are shown below in Table 1 and graphically in FIGS. 6a and 6b.

[6] = Dilution effect on hyperpolarization (injection of pure methanol-d4); conditions: 200 μL methanol-d4 injected; singlet order at 0.3 mT
Experimental: To observe the effect of simple dilution on hyperpolarization, pure methanol-d4 was injected into a solution of hyperpolarized tetrazine to obtain a diluted hyperpolarized signal as follows: tetrazine 1a was hyperpolarized singlet order at 0.3 mT and the spectra were acquired (as described in Example 4). The sample was again bubbled with para-H2 for 3 minutes at 0.3 mT, then the pressure was released and the injection valve was opened, after which 200 μL of methanol-d4 was quickly injected and the sample was manually transferred into the magnet to read out the signal (detailed in Example 4, but with the key difference: pure methanol-d4 used instead of a solution of 2 in methanol-d4). […] The signal observed was about half of the signal before addition.

[7] = Kinetic characterization of tetrazine/cyclooctyne reaction; conditions: 1.5 mM tetrazine, 1.5 equivalent of 2, CD3OD
Experimental: Emulating hyperpolarization conditions (below), a 1.5 mM solution of 1c (1 equivalent) in CD3OD (400 μL) was added to an NMR tube. To this solution, a 4.5 mM solution of 2 (1.5 equivalent) in CD3OD (200 μL) was added and the NMR tube was shaken vigorously. Immediately upon addition, the color of the solution changed from pink (due to the pink color of the tetrazine 1c) to colorless. As soon as the pink color completely dissipated (<2 seconds), the sample was placed into the NMR and a spectrum was acquired. The upper trace represents 1c and the lower trace represents 3c, i.e., the product of the cycloaddition reaction.

[8] = at 0.3 mT, 1.5 mM in methanol-d4
[9] = tetrazine concentration 0.60 mM
[10] = tetrazine concentration 3.75 mM
[11] = 3:1 methanol-d4:D2O, about 50° C.

OC[C@H]1[C@H]2CCc3c(c[15n][15n]c3-c3ccccc3)CC[C@@H]12 (racemic) [3a, (1-Phenyl-6,6a,7,7a,8,9-hexahydro-5H-cyclopropa[5,6]cycloocta[1,2-d]pyridazin-7-yl-2,3-15N2)methanol]
lifetime Ts of product ([1]; held at 0.3 mT): 13 ± 2 s
magnetization lifetime T1 of product ([1]; held at 0.3 mT): 13 ± 4 s
enhancement over thermal spectra, hyperpolarized product magnetization ([1]; tetrazine magnetization hyperpolarized at 0.4 μT, then 2 added at 0.3 mT): 540 fold
signal enhancement over thermal spectra, product anti-phase (singlet) signal [1]: 140 fold
product magnetization T1 lifetime [2]: ~6.9 s
hyperpolarized signal from cycloaddition product ([3]; 3:1 CD3OD:D2O, 50° C.): detected the hyperpolarized signal

c1ccc(-c2[15n][15n]c[15n][15n]2)cc1 [1a, 3-Phenyl-1,2,4,5-tetrazine-1,2,4,5-^15N4]
lifetime of scalar order relative to magnetization ([4]; at 0.3 mT): about 2 times
magnetization relaxation constant T1 [4, 8]: 1.4 ± 0.1 min
relaxation constant of the scalar order of the 15N spin pairs, Ts [4, 8]: 2.7 ± 0.3 min
signal enhancement over 8.45 T thermal measurements ([4]; tetrazine 1.5 mM, pyridine 1.0 mM, Ir(COD)(IMes)Cl 0.15 mM in methanol-d4): up to 3,000 fold
Singlet enhancement at 0 s delay (normalized to 1.5 mM singlet, %) [5, 9]: 96%
Z-Magnetization enhancement at 0 s delay (normalized to 1.5 mM Z-magnetization, %) [5, 9]: 130%
T1 [5, 9]: 74 s
Ts [5, 9]: 357 s
Singlet enhancement at 0 s delay (normalized to 1.5 mM singlet, %) ([5]; tetrazine concentration 1.5 mM): 100%
Z-Magnetization enhancement at 0 s delay (normalized to 1.5 mM Z-magnetization, %) ([5]; tetrazine concentration 1.5 mM): 100%
T1 ([5]; tetrazine concentration 1.5 mM): 91 s
Ts ([5]; tetrazine concentration 1.5 mM): 137 s
Singlet enhancement at 0 s delay (normalized to 1.5 mM singlet, %) [5, 10]: 77%
Z-Magnetization enhancement at 0 s delay (normalized to 1.5 mM Z-magnetization, %) [5, 10]: 86%
T1 [5, 10]: 72 s
Ts [5, 10]: 58 s
Singlet enhancement at 0 s delay (normalized to 1.5 mM singlet, %) ([5]; tetrazine concentration 7.5 mM): 56%
Z-Magnetization enhancement at 0 s delay (normalized to 1.5 mM Z-magnetization, %) ([5]; tetrazine concentration 7.5 mM): 66%
T1 ([5]; tetrazine concentration 7.5 mM): 47 s
Ts ([5]; tetrazine concentration 7.5 mM): 48 s
enhancement compared to that in neat methanol-d4 [3, 11]: about 30%
signal enhancement [3, 11]: ~900 fold
hyperpolarized singlet signal after dilution relative to signal before addition [6]: about half

[2H]c1[15n][15n]c(-c2ccccc2)[15n][15n]1 [1b, 3-Phenyl-1,2,4,5-tetrazine-6-d-1,2,4,5-^15N4]
relaxation constant of the scalar order of the 15N spin pairs, Ts [4, 8]: 2.1 ± 0.7 min
enhancement of hyperpolarized scalar order ([4]; singlet mode, 1.5 mM in methanol-d4): 2900 fold
hyperpolarized magnetization (T1) obtainable ([4]; μT fields): not possible to create the hyperpolarized magnetization

c1ccc(-c2nncnn2)cc1 [1c, 3-Phenyl-1,2,4,5-tetrazine]
time until pink color completely dissipated on reaction with 2 [7]: < 2 s

[2H]c1[15n][15n]c(-c2ccccc2)c2c1CC[C@H]1[C@@H](CO)[C@H]1CC2 [3b, (1-Phenyl-6,6a,7,7a,8,9-hexahydro-5H-cyclopropa[5,6]cycloocta[1,2-d]pyridazin-7-yl-4-d-2,3-^15N2)methanol]
lifetime Ts of product ([1]; held at 0.3 mT): 24 ± 6 s
signal enhancement over thermal spectra, product anti-phase (singlet) signal [1]: 180 fold
